{"source": "paper PMC5218480", "about": "(PLoS ONE, 2017)", "test_system": "MV-4-11 cells", "assay": "Gene expression microarray analysis (Affymetrix PrimeView) and GSEA", "assay_type": "cell-based, human", "parameters": "RFU PODN (11730768_x_at) / Fold change /veh PODN (11730768_x_at) / RFU LINC00158 (11744669_a_at) / Fold change /veh LINC00158 (11744669_a_at) / RFU DUSP10 (11751237_a_at) / Fold change /veh DUSP10 (11751237_a_at) / RFU ID3 (11757404_x_at) / Fold change /veh ID3 (11757404_x_at) / RFU PLEKHG5 (11737974_s_at) / Fold change /veh PLEKHG5 (11737974_s_at) / RFU LRRC4B (11730491_at) / Fold change /veh LRRC4B (11730491_at) / RFU GIMAP4 (11747438_a_at) / Fold change /veh GIMAP4 (11747438_a_at) / RFU KRT8 (11758183_x_at) / Fold change /veh KRT8 (11758183_x_at) / RFU CNN1 (11734310_a_at) / Fold change /veh CNN1 (11734310_a_at) / RFU VPS37D (11726825_at) / Fold change /veh VPS37D (11726825_at) / RFU C10orf10 (11716522_x_at) / Fold change /veh C10orf10 (11716522_x_at) / RFU KIR2DL2 /// KIR2DL4 /// KIR2DL5A /// KIR2DL5B /// KIR2DS1 /// KIR2DS2 /// KIR2DS3 /// KIR2DS4 /// KIR3DL3 /// KIR3DL3 /// KIR3DS1 (11738374_at) / Fold change /veh KIR2DL2 /// KIR2DL4 /// KIR2DL5A /// KIR2DL5B /// KIR2DS1 /// KIR2DS2 /// KIR2DS3 /// KIR2DS4 /// KIR3DL3 /// KIR3DL3 /// KIR3DS1 (11738374_at) / RFU C1QL1 (11718748_at) / Fold change /veh C1QL1 (11718748_at) / RFU TMPRSS4 (11747572_a_at) / Fold change /veh TMPRSS4 (11747572_a_at) / RFU HAMP (11756126_x_at) / Fold change /veh HAMP (11756126_x_at) / RFU RNFT2 (11725882_a_at) / Fold change /veh RNFT2 (11725882_a_at) / RFU NR4A2 (11747474_a_at) / Fold change /veh NR4A2 (11747474_a_at) / RFU ABCC12 (11746883_a_at) / Fold change /veh ABCC12 (11746883_a_at) / RFU TMEM136 (11760407_x_at) / Fold change /veh TMEM136 (11760407_x_at) / RFU CLDN22 /// WWC2 (11732394_at) / Fold change /veh CLDN22 /// WWC2 (11732394_at) / RFU HLA-DPB1 (11760878_x_at) / Fold change /veh HLA-DPB1 (11760878_x_at) / RFU SPINT1 (11716480_a_at) / Fold change /veh SPINT1 (11716480_a_at) / RFU GAP43 (11754022_s_at) / Fold change /veh GAP43 (11754022_s_at) / RFU A4GNT (11735810_at) / Fold change /veh A4GNT (11735810_at) / RFU PRB3 (11715151_x_at) / Fold change /veh PRB3 (11715151_x_at) / RFU TUBB4B (11761932_at) / Fold change /veh TUBB4B (11761932_at) / RFU CAPN14 (11732068_a_at) / Fold change /veh CAPN14 (11732068_a_at) / RFU TMCC2 (11721928_a_at) / Fold change /veh TMCC2 (11721928_a_at) / RFU IRGQ (11745062_a_at) / Fold change /veh IRGQ (11745062_a_at) / RFU FAM174B (11720279_a_at) / Fold change /veh FAM174B (11720279_a_at) / RFU TMPRSS4 (11748680_a_at) / Fold change /veh TMPRSS4 (11748680_a_at) / RFU FAM212B (11763350_a_at) / Fold change /veh FAM212B (11763350_a_at) / RFU PLEKHG5 (11743358_a_at) / Fold change /veh PLEKHG5 (11743358_a_at) / RFU ZSCAN30 (11745921_a_at) / Fold change /veh ZSCAN30 (11745921_a_at) / RFU CMKLR1 (11741424_a_at) / Fold change /veh CMKLR1 (11741424_a_at) / RFU LOC101060620 /// MAPK8IP1 (11723275_at) / Fold change /veh LOC101060620 /// MAPK8IP1 (11723275_at) / RFU SPTSSB (11747773_x_at) / Fold change /veh SPTSSB (11747773_x_at) / RFU PRSS12 (11739890_at) / Fold change /veh PRSS12 (11739890_at) / RFU BIN1 (11741810_x_at) / Fold change /veh BIN1 (11741810_x_at) / RFU WNT11 (11732464_a_at) / Fold change /veh WNT11 (11732464_a_at) / RFU C10orf10 (11716521_a_at) / Fold change /veh C10orf10 (11716521_a_at) / RFU C5orf56 (11738089_at) / Fold change /veh C5orf56 (11738089_at) / RFU CYB561 (11721691_x_at) / Fold change /veh CYB561 (11721691_x_at) / RFU ANKRD19P (11752326_a_at) / Fold change /veh ANKRD19P (11752326_a_at) / RFU OR2T12 /// OR2T33 /// OR2T8 (11738714_s_at) / Fold change /veh OR2T12 /// OR2T33 /// OR2T8 (11738714_s_at) / RFU VCAN (11748164_a_at) / Fold change /veh VCAN (11748164_a_at) / RFU JSRP1 (11732532_at) / Fold change /veh JSRP1 (11732532_at) / RFU KRTAP10-11 (11738290_x_at) / Fold change /veh KRTAP10-11 (11738290_x_at) / RFU MYO3A (11730013_a_at) / Fold change /veh MYO3A (11730013_a_at) / RFU EBF3 (11725865_a_at) / Fold change /veh EBF3 (11725865_a_at) / RFU CAMK2N1 (11719241_x_at) / Fold change /veh CAMK2N1 (11719241_x_at) / RFU C5orf56 (11738088_a_at) / Fold change /veh C5orf56 (11738088_a_at) / RFU OLFML3 (11715873_a_at) / Fold change /veh OLFML3 (11715873_a_at) / RFU LOC100653217 /// NTM (11731650_a_at) / Fold change /veh LOC100653217 /// NTM (11731650_a_at) / RFU MAPK11 (11762145_a_at) / Fold change /veh MAPK11 (11762145_a_at) / RFU FIZ1 (11724087_x_at) / Fold change /veh FIZ1 (11724087_x_at) / RFU OASL (11726364_x_at) / Fold change /veh OASL (11726364_x_at) / RFU SOX15 (11748057_x_at) / Fold change /veh SOX15 (11748057_x_at) / RFU CD79A (11719716_a_at) / Fold change /veh CD79A (11719716_a_at) / RFU HIST1H1D (11736915_at) / Fold change /veh HIST1H1D (11736915_at) / RFU CASKIN2 (11723855_a_at) / Fold change /veh CASKIN2 (11723855_a_at) / RFU LOC730098 (11760151_x_at) / Fold change /veh LOC730098 (11760151_x_at) / RFU OR4N2 (11742367_at) / Fold change /veh OR4N2 (11742367_at) / RFU PRRT2 (11749266_a_at) / Fold change /veh PRRT2 (11749266_a_at) / RFU SNX32 (11753110_a_at) / Fold change /veh SNX32 (11753110_a_at) / RFU CDHR5 (11726645_a_at) / Fold change /veh CDHR5 (11726645_a_at) / RFU RCAN1 (11760418_a_at) / Fold change /veh RCAN1 (11760418_a_at) / RFU FAM167A (11723789_a_at) / Fold change /veh FAM167A (11723789_a_at) / RFU FAM26E (11764081_at) / Fold change /veh FAM26E (11764081_at) / RFU ISYNA1 (11749810_s_at) / Fold change /veh ISYNA1 (11749810_s_at) / RFU ACY1 (11761880_at) / Fold change /veh ACY1 (11761880_at) / RFU 11764098_at / Fold change /veh 11764098_at / RFU SAMD14 (11745864_x_at) / Fold change /veh SAMD14 (11745864_x_at) / RFU NPB (11741838_a_at) / Fold change /veh NPB (11741838_a_at) / RFU TMPRSS6 (11731388_a_at) / Fold change /veh TMPRSS6 (11731388_a_at) / RFU KRTAP10-2 (11738614_at) / Fold change /veh KRTAP10-2 (11738614_at) / RFU ARHGAP8 /// PRR5-ARHGAP8 (11727945_x_at) / Fold change /veh ARHGAP8 /// PRR5-ARHGAP8 (11727945_x_at) / RFU KRTAP5-7 /// NADSYN1 (11734609_at) / Fold change /veh KRTAP5-7 /// NADSYN1 (11734609_at) / RFU RASL12 (11751679_a_at) / Fold change /veh RASL12 (11751679_a_at) / RFU CDKN2B (11736163_a_at) / Fold change /veh CDKN2B (11736163_a_at) / RFU PRF1 (11729649_at) / Fold change /veh PRF1 (11729649_at) / RFU, ZNF638 /// ZNF638-IT1 / Fold change vs veh, ZNF638 /// ZNF638-IT1 / RFU, PANK3 / Fold change vs veh, PANK3 / RFU, SH3YL1 / Fold change vs veh, SH3YL1 / RFU, ZEB2 / Fold change vs veh, ZEB2 / RFU, NRIP1 / Fold change vs veh, NRIP1 / RFU, PTTG1IP / Fold change vs veh, PTTG1IP / RFU, CAPN2 / Fold change vs veh, CAPN2 / RFU, MED14 / Fold change vs veh, MED14 / RFU, SNORA58 / Fold change vs veh, SNORA58 / RFU, C1orf63 / Fold change vs veh, C1orf63 / RFU, LRRFIP1 / Fold change vs veh, LRRFIP1 / RFU, NDUFAF7 / Fold change vs veh, NDUFAF7 / RFU, SLC12A2 / Fold change vs veh, SLC12A2 / RFU, IBTK / Fold change vs veh, IBTK / RFU, ESF1 / Fold change vs veh, ESF1 / Fold change vs veh, TMEM50B / RFU, TAOK1 / Fold change vs veh, TAOK1 / RFU, ACBD3 / Fold change vs veh, ACBD3 / RFU, TMA16 / Fold change vs veh, TMA16 / RFU, RWDD3 / Fold change vs veh, RWDD3 / RFU, BCAT1 / Fold change vs veh, BCAT1 / RFU, EDEM3 / Fold change vs veh, EDEM3 / RFU, TMEM33 / Fold change vs veh, TMEM33 / RFU, WDR75 / Fold change vs veh, WDR75 / RFU, AHCTF1 / Fold change vs veh, AHCTF1 / RFU, TFRC / Fold change vs veh, TFRC / RFU, ZDHHC17 / Fold change vs veh, ZDHHC17 / RFU, NOM1 / Fold change vs veh, NOM1 / RFU, ARL8B / Fold change vs veh, ARL8B / RFU, ZBTB11 / Fold change vs veh, ZBTB11 / RFU, TAMM41 / Fold change vs veh, TAMM41 / RFU, KIAA1704 /// LOC100996395 / Fold change vs veh, KIAA1704 /// LOC100996395 / RFU, ING1 / Fold change vs veh, ING1 / RFU, TRMT61B / Fold change vs veh, TRMT61B / RFU, FUBP3 / Fold change vs veh, FUBP3 / RFU, TP53 / Fold change vs veh, TP53 / RFU, TNKS2 / Fold change vs veh, TNKS2 / RFU, ZFP14 / Fold change vs veh, ZFP14 / RFU, ACTR2 / Fold change vs veh, ACTR2 / RFU, PPP3R1 / Fold change vs veh, PPP3R1 / RFU, PIK3R1 / Fold change vs veh, PIK3R1 / RFU, HNRNPA1 / Fold change vs veh, HNRNPA1 / RFU, RNF170 / Fold change vs veh, RNF170 / RFU, ZNF28 / Fold change vs veh, ZNF28 / RFU, RNGTT / Fold change vs veh, RNGTT / RFU, OGT / Fold change vs veh, OGT / RFU, BRD1 / Fold change vs veh, BRD1 / RFU, MARS / Fold change vs veh, MARS / RFU, ZNF655 / Fold change vs veh, ZNF655 / RFU, FAHD1 / Fold change vs veh, FAHD1 / RFU, BDP1 / Fold change vs veh, BDP1 / RFU, LRRCC1 / Fold change vs veh, LRRCC1 / RFU, ARID1A / Fold change vs veh, ARID1A / RFU, ZNF146 / Fold change vs veh, ZNF146 / RFU, ZNF330 / Fold change vs veh, ZNF330 / RFU, GPN3 / Fold change vs veh, GPN3 / RFU, C9orf123 / Fold change vs veh, C9orf123 / RFU, N4BP2L2 / Fold change vs veh, N4BP2L2 / RFU, ARFIP1 / Fold change vs veh, ARFIP1 / RFU, FAM179B / Fold change vs veh, FAM179B / RFU, BCL10 / Fold change vs veh, BCL10 / RFU, UHRF1BP1L / Fold change vs veh, UHRF1BP1L / RFU, BET1 / Fold change vs veh, BET1 / RFU, CNOT2 / Fold change vs veh, CNOT2 / RFU, ZNF268 / Fold change vs veh, ZNF268 / Fold change vs veh, ZNF507 / RFU, DGCR2 / Fold change vs veh, DGCR2 / RFU, WDSUB1 / Fold change vs veh, WDSUB1 / Fold change vs veh, HSP90B1 /// MIR3652 / RFU, ADSS / Fold change vs veh, ADSS / RFU, GK / Fold change vs veh, GK / RFU, ZNF148 / Fold change vs veh, ZNF148 / RFU, TAF9 / Fold change vs veh, TAF9 / RFU, SLC1A5 / Fold change vs veh, SLC1A5 / RFU, SLMO2 / Fold change vs veh, SLMO2 / RFU, ABCC4 / Fold change vs veh, ABCC4 / RFU, LOC101060439 /// RAP1B / Fold change vs veh, LOC101060439 /// RAP1B / RFU, RFX7 / Fold change vs veh, RFX7 / RFU, GTPBP10 / Fold change vs veh, GTPBP10 / RFU, CNEP1R1 / Fold change vs veh, CNEP1R1 / RFU, BIVM-ERCC5 /// ERCC5 / Fold change vs veh, BIVM-ERCC5 /// ERCC5 / RFU, ILF3 / Fold change vs veh, ILF3 / RFU 11762660_at / Fold change /veh 11762660_at / RFU VCAN (11757783_s_at) / Fold change /veh VCAN (11757783_s_at) / RFU DDX43 (11728927_at) / Fold change /veh DDX43 (11728927_at) / RFU KRT8 (11758188_x_at) / Fold change /veh KRT8 (11758188_x_at) / RFU NKD1 (11759106_at) / Fold change /veh NKD1 (11759106_at) / RFU SRD5A1 (11742802_a_at) / Fold change /veh SRD5A1 (11742802_a_at) / RFU TPSAB1 /// TPSB2 (11721975_s_at) / Fold change /veh TPSAB1 /// TPSB2 (11721975_s_at) / RFU GSTM3 (11746129_a_at) / Fold change /veh GSTM3 (11746129_a_at) / RFU IL23R (11737362_x_at) / Fold change /veh IL23R (11737362_x_at) / RFU TMEM51 (11727254_a_at) / Fold change /veh TMEM51 (11727254_a_at) / RFU PIWIL2 (11732686_x_at) / Fold change /veh PIWIL2 (11732686_x_at) / RFU ORM1 (11744905_x_at) / Fold change /veh ORM1 (11744905_x_at) / RFU CCDC152 (11743942_at) / Fold change /veh CCDC152 (11743942_at) / RFU ECM1 (11717891_a_at) / Fold change /veh ECM1 (11717891_a_at) / RFU IL23R (11748794_a_at) / Fold change /veh IL23R (11748794_a_at) / RFU TNFAIP8L3 (11732012_x_at) / Fold change /veh TNFAIP8L3 (11732012_x_at) / RFU MBOAT4 (11741988_at) / Fold change /veh MBOAT4 (11741988_at) / RFU 11764193_at / Fold change /veh 11764193_at / RFU TMEM53 (11763286_at) / Fold change /veh TMEM53 (11763286_at) / RFU MAGEB2 (11727129_at) / Fold change /veh MAGEB2 (11727129_at) / RFU TMEM200A (11744735_a_at) / Fold change /veh TMEM200A (11744735_a_at) / RFU CCDC152 (11751479_a_at) / Fold change /veh CCDC152 (11751479_a_at) / RFU FAM211A (11726209_a_at) / Fold change /veh FAM211A (11726209_a_at) / RFU RGS16 (11746705_a_at) / Fold change /veh RGS16 (11746705_a_at) / RFU VCAN (11755009_s_at) / Fold change /veh VCAN (11755009_s_at) / RFU RHOB (11743442_s_at) / Fold change /veh RHOB (11743442_s_at) / RFU RGS16 (11720943_a_at) / Fold change /veh RGS16 (11720943_a_at) / RFU RGS16 (11720944_at) / Fold change /veh RGS16 (11720944_at) / RFU, VPS4B / Fold change vs veh, VPS4B / RFU, CREB1 / Fold change vs veh, CREB1 / RFU, DNAJC13 / Fold change vs veh, DNAJC13 / RFU, GNAQ / Fold change vs veh, GNAQ / RFU, CDK5R1 / Fold change vs veh, CDK5R1 / RFU, ZRANB3 / Fold change vs veh, ZRANB3 / RFU, CUL4A / Fold change vs veh, CUL4A / RFU, CCNY / Fold change vs veh, CCNY / RFU, UFL1 / Fold change vs veh, UFL1 / RFU, COG3 / Fold change vs veh, COG3 / RFU, DIAPH2 / Fold change vs veh, DIAPH2 / RFU, SKA2 / Fold change vs veh, SKA2 / RFU, AFF3 / Fold change vs veh, AFF3 / RFU, LMF1 / Fold change vs veh, LMF1 / RFU, IPO11 / Fold change vs veh, IPO11 / RFU, DFFB / Fold change vs veh, DFFB / RFU, FOXP1 / Fold change vs veh, FOXP1 / RFU, CARD8 / Fold change vs veh, CARD8 / RFU, STRN3 / Fold change vs veh, STRN3 / RFU, ADK / Fold change vs veh, ADK / RFU, RASSF2 / Fold change vs veh, RASSF2 / RFU, WIPF1 / Fold change vs veh, WIPF1 / RFU, LARP1B / Fold change vs veh, LARP1B / RFU, RASA1 / Fold change vs veh, RASA1 / RFU, RB1 / Fold change vs veh, RB1 / RFU, PPFIA1 / Fold change vs veh, PPFIA1 / RFU, MAT2A / Fold change vs veh, MAT2A / RFU, CCT5 / Fold change vs veh, CCT5 / RFU, WDR92 / Fold change vs veh, WDR92 / RFU, CUX1 / Fold change vs veh, CUX1 / RFU, TTC7A / Fold change vs veh, TTC7A / RFU, TMEM135 / Fold change vs veh, TMEM135 / RFU, DEPTOR / Fold change vs veh, DEPTOR / RFU, CPM / Fold change vs veh, CPM / RFU, DNAJB6 / Fold change vs veh, DNAJB6 / RFU, CACNA2D3 / Fold change vs veh, CACNA2D3 / RFU, DTX4 / Fold change vs veh, DTX4 / RFU, TFCP2 / Fold change vs veh, TFCP2 / RFU, GMCL1 /// GMCL1P1 / Fold change vs veh, GMCL1 /// GMCL1P1 / RFU, AEBP2 / Fold change vs veh, AEBP2 / RFU, SNHG1 /// SNORD22 /// SNORD25 /// SNORD26 /// SNORD27 /// SNORD28 /// SNORD29 /// SNORD31 / Fold change vs veh, SNHG1 /// SNORD22 /// SNORD25 /// SNORD26 /// SNORD27 /// SNORD28 /// SNORD29 /// SNORD31 / Fold change (Aza/veh), C12orf56 (ProbeSet 11735607_a_at) / Fold change (ACY-1035/veh), C12orf56 (ProbeSet 11735607_a_at) / Fold change (Aza/veh), FGFR1OP (ProbeSet 11751329_s_at) / Fold change (ACY-1035/veh), FGFR1OP (ProbeSet 11751329_s_at) / Fold change (Aza/veh), VPS36 (ProbeSet 11739960_a_at) / Fold change (ACY-1035/veh), VPS36 (ProbeSet 11739960_a_at) / RFU SYPL1 (11715823_x_at) / Fold change /veh SYPL1 (11715823_x_at) / RFU IGFBP7 (11715501_s_at) / Fold change /veh IGFBP7 (11715501_s_at) / RFU REEP3 (11722064_at) / Fold change /veh REEP3 (11722064_at) / RFU IGLL1 (11728026_x_at) / Fold change /veh IGLL1 (11728026_x_at): dose or concentration left out as unconfirmed", "details": "MV-4-11 cells, 48 hours", "data": [{"smiles": "Nc1ncn([C@@H]2O[C@H](CO)[C@@H](O)[C@H]2O)c(=O)n1", "note": "[azacitidine]", "values": [{"measurement": "RFU C5orf56 (11738088_a_at)", "value": 66.32, "unit": "RFU"}]}]}
